Assay results published in patent US20250042925A1, “Improved Compositions and Methods for Targeting Mitochondria in Cancer Cells” (The Medical College of Wisconsin, Inc., priority 2021, published 2025).

Columns and labels:
[1] = system: AsPC-1 cells; experiment: TMRE retention (mitochondrial depolarization) by flow cytometry in AsPC-1; format: cell-based, human; details: AsPC-1, 1 hour treatment
Method: AsPC-1 and HPSC cells were serum-starved overnight, loaded with tetramethylrhodamine ethyl ester (TMRE), and treated for 1 hour with the indicated concentrations of MMe or pCF3-MMe or, as the vehicle control, DMSO. Mitochondrial TMRE retention was measured by flow cytometry. Representative histograms of n=3 of TMRE fluorescence in AsPC-1 (FIG. 4A) and HPSC (FIG. 4B) in response to treatment. […] Total cellular ATP levels were analyzed using a luminescent ATP detection assay of KPC1242 cells treated with MMe (0.7 μM) or pCF3-MMe (3 μM), and changes in ATP levels were assayed (FIG. 4E). Representatives immunoblot analyses of phosphorylated and total AMPK levels (FIG. 4F) and densitometric quantification (FIG. 4G) in KPC1242 cells treated with MMe (0.7 μM) or pCF3-MMe (3 μM). […] Values are mean±SD from 3 biological replicates. Statistical differences in a, c, and e were determined using Student's t-test (*, p<0.05; **, p<0.01; ***, p<0.001, ns: not significant).
TPP-conjugated compounds are known to effectively target the mitochondria of cancer cells. Thus, the efficacy of pCF3-MMe to effectively target the mitochondria of cancer cells was tested and compared to normal cells using tetramethylrhodamine ethyl ester perchlorate (TMRE), a cell-permeant, positively-charged dye that accumulates in active mitochondria, and is released into the cytosol upon mitochondrial damage. […]

[2] = system: HPNE and HPSC non-transformed cells; experiment: Cell growth (confluence) of normal non-transformed cells; format: cell-based, human; details: for sensitivity of normal non-transformed cells compared to cancer cells: HPNE, HPSC versus cancer cells
Method: To test the off-target effects of the refined MMe analogs on normal non-transformed cells, the growth of HPNE cells (FIGS. 11A, 11D, and 11G), used as a surrogate for normal pancreatic ductal epithelium, or normal stromal HPSC cells (FIGS. 11B, 11E, and 11H) were measured in increasing concentrations of MMe, pCF3-MMe, or mCF3-MMe and compared to the vehicle control.
Murine pancreatic cancer cells KPC1242 (David Tuveson, Cold Spring Harbor), human pancreatic cancer cells, Panc-1 (ATCC: CRL-1469), human breast cancer cells MDA-MB-231 (ATCC: CRM-HTB-26), and human pancreatic stellate cells HPSC (Rosa F. Hwang, MD Anderson cancer) were all cultured in DMEM (Gibco ThermoFisher Scientific, Waltham, MA, Cat #11965084) containing 10% v/v fetal bovine serum (Omega Scientific, Inc., Tarzana, CA, Cat #FB-12). Human pancreatic cancer cells AsPC-1 (ATCC: CRL-1682), human ovarian cancer cells OVCAR-8 (NIH: CVCL-1629), and human ovarian cancer cells OVCAR-4 (NIH: CVCL-1627) were all cultured in DMEM (Gibco, Cat #22400089) containing 10% v/v fetal bovine serum (Omega Scientific). Human colon cancer cells HCT-116 (ATCC: CCL-247) were cultured in McCoy's 5A Modified Medium (Gibco, Cat #16600082) containing 10% v/v fetal bovine serum (Omega Scientific). Human pancreatic duct epithelial cells HPNE (ATCC: CRL-4023) were cultured in DMEM and 200 mM L-Glutamine and 7.5% w/v NaCO3 further supplemented with 15% v/v fetal bovine serum, M3-Base A (Incell, San Antonio, TX), 1M D-Glucose (Gibco Cat #J60067.EQE), 100 μg/mL human EGF (Gibco Cat #PHG0313) and 10 mg/mL puromycin (ThermoFisher, Cat #A1113802).

[3] = system: KPC1242 cells; experiment: Luminescent ATP detection assay; format: cell-based, murine; details: 24 hours; 0.7 μM MMe or 3 μM pCF3-MMe
Method: The functional consequence of inhibiting mitochondria complex I and subsequently OXPHOS is a reduction of overall ATP levels in the cell. The ability of MMe to reduce ATP levels was previously reported in numerous cancer cell types. Thus, further studies were conducted to explore if pCF3-MMe retained similar properties. […] Cells, including cancer cells, must maintain a high ATP:ADP ratio to maintain cellular functions and survival. Moreover, AMP levels rise whenever the ATP:ADP ratio decreases, and an increase in the AMP:ATP ratio signals an energetic crisis in the cell. This energetic crisis is sensed by the master regulator AMP-Activated Protein Kinase (AMPK), which is activated through Thr172 phosphorylation and controls many signaling pathways ranging from energy metabolism to cellular growth. Therefore, further studies were conducted to evaluate if the reduction in ATP levels induced by MMe or pCF3-MMe is sufficient to activate AMPK.
Intracellular ATP levels were determined in cell lysates using a Luminescent ATP Detection Assay Kit per the manufacturer's directions (Abcam, Cambridge, UK, Cat #ab113849).

[4] = system: AMP-Activated Protein Kinase (AMPK); experiment: Immunoblot of AMPK Thr172 phosphorylation; format: cell-based, murine; details: 0.7 μM MMe or 3 μM pCF3-MMe
Method: The functional consequence of inhibiting mitochondria complex I and subsequently OXPHOS is a reduction of overall ATP levels in the cell. The ability of MMe to reduce ATP levels was previously reported in numerous cancer cell types. Thus, further studies were conducted to explore if pCF3-MMe retained similar properties. […] Cells, including cancer cells, must maintain a high ATP:ADP ratio to maintain cellular functions and survival. Moreover, AMP levels rise whenever the ATP:ADP ratio decreases, and an increase in the AMP:ATP ratio signals an energetic crisis in the cell. […]
Cells were serum-starved for 24 hours followed by compound treatment for 24 hours before lysis in RIPA buffer composed of 50 mM Tris-HCl, pH 7.4, 150 mM NaCl, 0.25% v/v sodium deoxycholate, 1% v/v Nonidet P-40, 0.1% v/v SDS, 1 mM EDTA, 10 mM sodium orthovanadate, 40 mM 0-glycerol phosphate, 20 mM sodium fluoride, and protease inhibitors cocktail set III (Millipore Sigma, Cat #539134). […] Primary antibodies were detected by incubating with secondary horseradish peroxidase-conjugated antibody (Cytiva, Amersham ECL rabbit IgG-HRP, Cat #NA9340). Densitometric quantification of phosphorylated, total or actin protein levels was measured using chemiluminescence and calculated using Alpha View Software.

Compound	TMRE accumulation within the mitochondria [1]	reduction in toxicity to normal cells compared to MMe [2]	sensitivity of normal non-transformed cells compared to cancer cells [2]	toxic effects towards non-transformed HPNE and HPSC-1 cells ([2]; compared to the parent MMe and the mCF3-MMe analog)	levels of ATP [3]	AMPK activation (Thr172 phosphorylation) [4]
N=C(N)NC(=N)NCCCCCCCCCC[P+](c1ccc(C(F)(F)F)cc1)(c1ccc(C(F)(F)F)cc1)c1ccc(C(F)(F)F)cc1.[Br-] [pCF3-MMe, (10-(3-carbamimidoylguanidino)decyl)tris(4-(trifluoromethyl)phenyl)phosphonium bromide]	significantly reduced TMRE accumulation	~10 fold	more than a log less sensitive	least toxic effects	significantly reduced	significant increase in AMPK activation
N=C(N)NC(=N)NCCCCCCCCCC[P+](c1ccccc1)(c1ccccc1)c1ccccc1.[Br-] [MMe, 10-[(carbamimidamidomethanimidoyl)amino]decyl-triphenylphosphonium bromide, reference compound]	significantly reduced TMRE accumulation		more than a log less sensitive		significantly reduced	significant increase in AMPK activation
